Results from ChEMBL document CHEMBL4414648, “Novel Benzohydroxamate-Based Potent and Selective Histone Deacetylase 6 (HDAC6) Inhibitors Bearing a Pentaheterocyclic Scaffold: Design, Synthesis, and Biological Evaluation” (J Med Chem, 2019).
One block for each molecule: values may come before it.

Key:
[1] = molecular target: T1, Protein deacetylase HDAC6 (Homo sapiens, UniProt Q9UBN7); assay: biochemical
T1 sequence (Q9UBN7 whole entry): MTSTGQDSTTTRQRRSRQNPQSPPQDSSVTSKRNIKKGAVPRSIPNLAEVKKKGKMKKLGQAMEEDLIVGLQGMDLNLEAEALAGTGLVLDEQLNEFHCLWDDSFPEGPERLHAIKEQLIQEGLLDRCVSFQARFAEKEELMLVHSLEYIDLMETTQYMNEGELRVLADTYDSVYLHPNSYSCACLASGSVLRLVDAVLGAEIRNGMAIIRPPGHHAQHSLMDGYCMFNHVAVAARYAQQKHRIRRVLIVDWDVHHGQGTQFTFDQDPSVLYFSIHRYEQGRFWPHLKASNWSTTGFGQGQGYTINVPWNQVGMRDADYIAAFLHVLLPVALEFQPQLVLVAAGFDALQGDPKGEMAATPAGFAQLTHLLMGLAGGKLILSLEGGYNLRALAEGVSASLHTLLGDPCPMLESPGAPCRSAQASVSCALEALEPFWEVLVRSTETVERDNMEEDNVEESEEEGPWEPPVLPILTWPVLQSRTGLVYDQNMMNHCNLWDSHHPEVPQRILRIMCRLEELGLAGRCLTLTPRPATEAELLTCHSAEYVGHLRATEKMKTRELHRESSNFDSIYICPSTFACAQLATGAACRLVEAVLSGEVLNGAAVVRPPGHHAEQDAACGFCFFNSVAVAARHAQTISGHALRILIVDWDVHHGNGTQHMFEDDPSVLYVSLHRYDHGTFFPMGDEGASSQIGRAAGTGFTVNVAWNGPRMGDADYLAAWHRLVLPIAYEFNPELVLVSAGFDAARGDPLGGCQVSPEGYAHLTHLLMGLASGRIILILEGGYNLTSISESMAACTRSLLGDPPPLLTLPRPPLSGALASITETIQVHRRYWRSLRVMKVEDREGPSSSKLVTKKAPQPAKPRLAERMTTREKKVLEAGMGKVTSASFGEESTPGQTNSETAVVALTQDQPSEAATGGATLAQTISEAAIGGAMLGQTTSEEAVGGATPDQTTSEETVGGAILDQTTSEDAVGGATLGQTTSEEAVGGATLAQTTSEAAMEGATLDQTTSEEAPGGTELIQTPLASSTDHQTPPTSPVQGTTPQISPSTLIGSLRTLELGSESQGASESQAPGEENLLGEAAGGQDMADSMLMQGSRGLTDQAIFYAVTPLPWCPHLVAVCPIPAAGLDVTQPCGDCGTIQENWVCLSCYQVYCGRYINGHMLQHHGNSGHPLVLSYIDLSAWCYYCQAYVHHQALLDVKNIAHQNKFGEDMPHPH

[2] = Selectivity ratio of IC50 for C-terminal His-tagged human HDAC8 expressed in baculovirus infected sf9 insect cells to IC50 for human N-terminal GST-tagged HDAC6 expressed in baculovirus infected sf9 insect cells
[3] = Stability in human liver S9 fraction assessed as parent compound remaining at 5 uM after 90 mins in presence of NADPH by LC-MS/MS analysis; assay type: ADME, subcellular; conditions: read-out: Stability
[4] = system: Histone deacetylase; assay: Inhibition of HDAC in human 697 cells assessed as increase in H3 acetylation at 1000 nM incubated for 16 hrs by ELISA; assay type: cell-based; conditions: human, 697, 16 h, 1 µM
[5] = Selectivity ratio of IC50 for N-terminal Flag-tagged human HDAC10 (2 to 631 residues) expressed in baculovirus infected sf9 insect cells to IC50 for human N-terminal GST-tagged HDAC6 expressed in baculovirus infected sf9 insect cells
[6] = Selectivity ratio of IC50 for N-terminal GST-tagged human HDAC7 (518 to end residues) expressed in baculovirus infected sf9 insect cells to IC50 for human N-terminal GST-tagged HDAC6 expressed in baculovirus infected sf9 insect cells
[7] = Stability in rat liver S9 fraction assessed as parent compound remaining at 5 uM after 90 mins in presence of NADPH by LC-MS/MS analysis; assay type: ADME, subcellular; conditions: read-out: Stability
[8] = Selectivity ratio of IC50 for C-terminal GST-tagged human HDAC5 to IC50 for human N-terminal GST-tagged HDAC6 expressed in baculovirus infected sf9 insect cells
[9] = system: PBMC; assay: Cytotoxicity against human PBMC cells after 72 hrs by CellTiter 96 aqueous one solution assay; assay type: cell-based
[10] = Stability in rat plasma assessed as parent compound remaining at 100 uM after 4 hrs by LC-MS/MS analysis; assay type: ADME, cell-free; conditions: read-out: Stability
[11] = Selectivity ratio of IC50 for N-terminal His-tagged human HDAC11 expressed in baculovirus expression system to IC50 for human N-terminal GST-tagged HDAC6 expressed in baculovirus infected sf9 insect cells
[12] = Stability in human plasma assessed as parent compound remaining at 100 uM after 4 hrs by LC-MS/MS analysis; assay type: ADME, cell-free; conditions: read-out: Stability
[13] = Selectivity ratio of IC50 for C-terminal His-tagged human HDAC9 (604 to 1066 residues) expressed in baculovirus infected sf9 insect cells to IC50 for human N-terminal GST-tagged HDAC6 expressed in baculovirus infected sf9 insect cells
[14] = system: 697; assay: Cytotoxicity against human 697 cells after 48 hrs by CellTiter 96 aqueous one solution assay; assay type: cell-based; conditions: Homo sapiens, 697, 48 h
[15] = Selectivity ratio of IC50 for human HDAC4 expressed in baculovirus infected sf9 insect cells to IC50 for human N-terminal GST-tagged HDAC6 expressed in baculovirus infected sf9 insect cells
[16] = molecular target: Histone deacetylase 3/Nuclear receptor corepressor 2 (HDAC3/NCoR2) (Homo sapiens, UniProt O15379); assay: Inhibition of C-terminal His-tagged human HDAC3 (1 to 428 residues)/N-terminal GST tagged human NCOR2 (395 to 489) expressed in baculovirus infected sf9 insect cells pretreated with compound followed by Fluor de Lys deacetylase substrate addition by fluorescence method
Chain of Histone deacetylase 3/Nuclear receptor corepressor 2 (HDAC3/NCoR2) (O15379 whole entry, the tested form may be a part): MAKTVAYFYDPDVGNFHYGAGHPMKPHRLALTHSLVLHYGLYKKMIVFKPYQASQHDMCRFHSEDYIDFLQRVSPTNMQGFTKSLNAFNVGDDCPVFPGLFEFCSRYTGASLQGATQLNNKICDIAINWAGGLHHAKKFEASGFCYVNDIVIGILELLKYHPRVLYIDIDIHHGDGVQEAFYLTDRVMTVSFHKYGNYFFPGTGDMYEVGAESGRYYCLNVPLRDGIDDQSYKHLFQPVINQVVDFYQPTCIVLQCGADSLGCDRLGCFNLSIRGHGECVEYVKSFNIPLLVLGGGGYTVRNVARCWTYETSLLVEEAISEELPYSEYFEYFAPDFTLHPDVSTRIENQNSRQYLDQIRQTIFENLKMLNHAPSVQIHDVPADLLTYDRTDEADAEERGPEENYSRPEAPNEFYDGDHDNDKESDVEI
Chain of Histone deacetylase 3/Nuclear receptor corepressor 2 (HDAC3/NCoR2) (Q9Y618 whole entry, further chain, the tested form may be a part): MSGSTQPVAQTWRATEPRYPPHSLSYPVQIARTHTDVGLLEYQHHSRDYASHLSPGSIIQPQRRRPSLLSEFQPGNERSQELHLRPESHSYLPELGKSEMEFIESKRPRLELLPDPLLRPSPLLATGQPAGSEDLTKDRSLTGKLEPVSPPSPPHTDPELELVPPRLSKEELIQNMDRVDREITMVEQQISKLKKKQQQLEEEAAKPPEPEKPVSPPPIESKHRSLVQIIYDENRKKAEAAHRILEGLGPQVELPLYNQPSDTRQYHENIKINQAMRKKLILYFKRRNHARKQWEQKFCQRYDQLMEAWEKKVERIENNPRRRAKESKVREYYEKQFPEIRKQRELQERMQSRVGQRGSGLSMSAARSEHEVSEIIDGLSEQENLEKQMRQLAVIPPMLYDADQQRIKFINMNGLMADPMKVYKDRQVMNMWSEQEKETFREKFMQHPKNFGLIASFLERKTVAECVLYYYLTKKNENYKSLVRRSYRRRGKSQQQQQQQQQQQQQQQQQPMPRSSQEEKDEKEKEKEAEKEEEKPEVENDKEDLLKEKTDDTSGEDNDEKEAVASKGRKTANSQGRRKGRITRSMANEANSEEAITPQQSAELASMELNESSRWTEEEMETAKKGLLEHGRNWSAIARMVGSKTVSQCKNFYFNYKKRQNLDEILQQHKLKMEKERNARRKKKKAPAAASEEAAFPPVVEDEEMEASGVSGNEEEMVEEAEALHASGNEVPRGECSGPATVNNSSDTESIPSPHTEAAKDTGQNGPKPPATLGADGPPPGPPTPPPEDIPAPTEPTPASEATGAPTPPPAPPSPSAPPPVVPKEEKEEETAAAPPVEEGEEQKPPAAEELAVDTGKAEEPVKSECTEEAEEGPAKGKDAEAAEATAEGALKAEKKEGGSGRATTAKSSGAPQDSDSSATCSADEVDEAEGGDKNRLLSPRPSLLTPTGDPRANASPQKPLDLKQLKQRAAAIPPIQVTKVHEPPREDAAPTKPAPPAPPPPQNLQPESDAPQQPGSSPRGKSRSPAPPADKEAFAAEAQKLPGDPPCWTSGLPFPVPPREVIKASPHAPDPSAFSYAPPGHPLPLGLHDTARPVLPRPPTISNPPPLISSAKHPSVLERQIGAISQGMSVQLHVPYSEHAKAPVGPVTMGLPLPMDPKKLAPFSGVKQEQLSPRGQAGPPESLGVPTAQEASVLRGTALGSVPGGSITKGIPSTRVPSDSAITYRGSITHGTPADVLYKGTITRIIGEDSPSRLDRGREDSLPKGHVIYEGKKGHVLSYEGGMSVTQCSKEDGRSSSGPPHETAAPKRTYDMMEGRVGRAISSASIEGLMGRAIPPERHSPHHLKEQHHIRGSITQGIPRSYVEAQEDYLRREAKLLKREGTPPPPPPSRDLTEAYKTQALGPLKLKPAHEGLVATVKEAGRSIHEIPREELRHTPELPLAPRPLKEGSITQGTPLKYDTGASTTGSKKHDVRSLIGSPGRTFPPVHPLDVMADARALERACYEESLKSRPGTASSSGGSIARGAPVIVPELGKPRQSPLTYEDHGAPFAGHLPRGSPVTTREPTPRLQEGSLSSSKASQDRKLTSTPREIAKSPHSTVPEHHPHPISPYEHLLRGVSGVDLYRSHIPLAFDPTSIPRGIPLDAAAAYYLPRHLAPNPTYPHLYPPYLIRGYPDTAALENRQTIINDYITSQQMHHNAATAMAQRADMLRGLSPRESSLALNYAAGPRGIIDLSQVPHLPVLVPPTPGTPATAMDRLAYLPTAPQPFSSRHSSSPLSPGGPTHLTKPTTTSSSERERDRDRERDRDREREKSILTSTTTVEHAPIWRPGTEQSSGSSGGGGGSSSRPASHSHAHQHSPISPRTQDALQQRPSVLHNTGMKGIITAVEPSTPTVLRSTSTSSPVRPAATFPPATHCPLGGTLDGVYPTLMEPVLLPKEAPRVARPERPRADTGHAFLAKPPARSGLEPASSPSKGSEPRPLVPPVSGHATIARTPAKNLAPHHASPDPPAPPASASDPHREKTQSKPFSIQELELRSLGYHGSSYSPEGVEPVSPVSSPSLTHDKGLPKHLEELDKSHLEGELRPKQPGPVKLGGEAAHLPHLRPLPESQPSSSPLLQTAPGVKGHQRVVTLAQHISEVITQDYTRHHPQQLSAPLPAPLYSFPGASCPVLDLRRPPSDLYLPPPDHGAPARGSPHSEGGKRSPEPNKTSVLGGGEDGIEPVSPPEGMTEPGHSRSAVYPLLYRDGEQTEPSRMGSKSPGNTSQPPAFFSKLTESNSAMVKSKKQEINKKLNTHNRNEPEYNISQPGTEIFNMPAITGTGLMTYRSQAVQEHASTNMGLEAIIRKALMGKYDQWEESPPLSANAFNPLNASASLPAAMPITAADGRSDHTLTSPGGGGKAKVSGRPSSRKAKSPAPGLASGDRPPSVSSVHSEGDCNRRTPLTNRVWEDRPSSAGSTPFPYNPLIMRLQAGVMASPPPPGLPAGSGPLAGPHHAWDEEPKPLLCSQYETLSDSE

IC50 [16]: 5000 nM
Compound: NCc1ccc(C(=O)NO)cc1

IC50 [1]: 353 nM | IC50 [16]: 3560 nM
Compound: Cc1nnc(-c2ccc(C(=O)NO)cc2)[nH]1

IC50 [1]: 270 nM | IC50 [16]: 1670 nM
Compound: CC(=O)Nc1ccc(C(=O)NO)cc1

More lines, now with the values behind:

Compound: O=C(NO)c1cc(F)c(Cn2nnc(-c3ccco3)n2)c(F)c1
IC50 [1]: 3 nM | Ratio IC50 [2]: 210 | remaining at […], 5 µM [3]: 94% | inhibition (INH) [4]: Active | Ratio IC50 [5]: 876 | Ratio IC50 [6]: 330 | remaining at […], 5 µM [7]: 68% | Ratio IC50 [8]: 194 | IC50 [9]: > 1000 nM | remaining at 4 h, 100 µM [10]: 100% | Ratio IC50 [11]: 259 | remaining at 4 h, 100 µM [12]: 100% | Ratio IC50 [13]: 192 | IC50 [14]: > 1000 nM | Ratio IC50 [15]: 219

Compound: O=C(NO)c1ccc(Cc2nnc[nH]2)cc1
IC50 [1]: 198 nM | IC50 [16]: 2900 nM
